Reference: patent US20220169628A1 (University of Florida Research Foundation, Incorporated, priority 2019, published 2022)

What was measured:
RS4;11 cells = assay: Cell viability assay, MTS, 48 h, RS4;11; format: cell-based; conditions: Homo sapiens, RS4-11, 48 h, 48 hours, read-out: IC50 (48 hours) RS4;11
Procedure: (§1) Acute lymphoblastic leukemia cells (MOLT-4 and RS4; 11) or small cell lung cancer (NCI-H146 or simply H146) were incubated with increasing concentrations of Bcl-xL degraders for 48 h. Cell viability was measured by tetrazolium-based MTS assay.

MOLT-4 cells = assay: Cell viability assay, MTS, 48 h, MOLT-4; format: cell-based; conditions: Homo sapiens, MOLT-4, 48 h, 48 hours, read-out: IC50 (48 hours) MOLT-4
Procedure: as §1

| SMILES | IC50 (RS4;11 cells) | IC50 (MOLT-4 cells) |
| --- | --- | --- |
| Cc1ncsc1-c1ccc([C@H](C)NC(=O)[C@@H]2C[C@@H](O)CN2C(=O)[C@@H](NC(=O)COCCOCCOCCOCCOCC(=O)NCC2(C)CCC(c3ccc(Cl)cc3)=C(CN3CCN(c4ccc(C(=O)NS(=O)(=O)c5ccc(N[C@H](CCN6CCOCC6)CSc6ccccc6)c(S(=O)(=O)C(F)(F)F)c5)cc4)CC3)C2)C(C)(C)C)cc1 (stereo partly drawn) [degrader #10, N1-((4′-chloro-4-methyl-6-((4-(4-(((4-(((R)-4-morpholino-1-(phenylthio)butan-2-yl)amino)-3-((trifluoromethyl)sulfonyl)phenyl)sulfonyl)carbamoyl)phenyl)piperazin-1-yl)methyl)-2,3,4,5-tetrahydro-[1,1′-biphenyl]-4-yl)methyl)-N17-((S)-1-((2S,4R)-4-hydroxy-2-(((S)-1-(4-(4-methylthiazol-5-yl)phenyl)ethyl)carbamoyl)pyrrolidin-1-yl)-3,3-dimethyl-1-oxobutan-2-yl)-3,6,9,12,15-pentaoxaheptadecanediamide] | > 500 nM | > 500 nM |
| Cc1ncsc1-c1ccc([C@H](C)NC(=O)[C@@H]2C[C@@H](O)CN2C(=O)[C@@H](NC(=O)CCCCC#CC#CC2(C)CCC(c3ccc(Cl)cc3)=C(CN3CCN(c4ccc(C(=O)NS(=O)(=O)c5ccc(N[C@H](CCN6CCOCC6)CSc6ccccc6)c(S(=O)(=O)C(F)(F)F)c5)cc4)CC3)C2)C(C)(C)C)cc1 (stereo partly drawn) [degrader #11, (2S,4R)-1-((2S)-2-(9-(4′-chloro-4-methyl-6-((4-(4-(((4-(((R)-4-morpholino-1-(phenylthio)butan-2-yl)amino)-3-((trifluoromethyl)sulfonyl)phenyl)sulfonyl)carbamoyl)phenyl)piperazin-1-yl)methyl)-2,3,4,5-tetrahydro-[1,1′-biphenyl]-4-yl)nona-6,8-diynamido)-3,3-dimethylbutanoyl)-4-hydroxy-N—((S)-1-(4-(4-methylthiazol-5-yl)phenyl)ethyl)pyrrolidine-2-carboxamide] | > 500 nM | > 500 nM |
| Cc1ncsc1-c1ccc([C@H](C)NC(=O)[C@@H]2C[C@@H](O)CN2C(=O)[C@@H](NC(=O)CCCCCC#CC#CC2(C)CCC(c3ccc(Cl)cc3)=C(CN3CCN(c4ccc(C(=O)NS(=O)(=O)c5ccc(N[C@H](CCN6CCOCC6)CSc6ccccc6)c(S(=O)(=O)C(F)(F)F)c5)cc4)CC3)C2)C(C)(C)C)cc1 (stereo partly drawn) [degrader #12, (2S,4R)-1-((2S)-2-(10-(4′-chloro-4-methyl-6-((4-(4-(((4-(((R)-4-morpholino-1-(phenylthio)butan-2-yl)amino)-3-((trifluoromethyl)sulfonyl)phenyl)sulfonyl)carbamoyl)phenyl)piperazin-1-yl)methyl)-2,3,4,5-tetrahydro-[1,1′-biphenyl]-4-yl)deca-7,9-diynamido)-3,3-dimethylbutanoyl)-4-hydroxy-N—((S)-1-(4-(4-methylthiazol-5-yl)phenyl)ethyl)pyrrolidine-2-carboxamide] | > 500 nM | > 500 nM |
| Cc1ncsc1-c1ccc([C@H](C)NC(=O)[C@@H]2C[C@@H](O)CN2C(=O)[C@@H](NC(=O)CCCC(=O)N2CCN(CC3(C)CCC(c4ccc(Cl)cc4)=C(CN4CCN(c5ccc(C(=O)NS(=O)(=O)c6ccc(N[C@H](CCN7CCOCC7)CSc7ccccc7)c(S(=O)(=O)C(F)(F)F)c6)cc5)CC4)C3)CC2)C(C)(C)C)cc1 (stereo partly drawn) [degrader #14, (2S,4R)-1-((2S)-2-(5-(4-((4′-chloro-4-methyl-6-((4-(4-(((4-(((R)-4-morpholino-1-(phenylthio)butan-2-yl)amino)-3-((trifluoromethyl)sulfonyl)phenyl)sulfonyl)carbamoyl)phenyl)piperazin-1-yl)methyl)-2,3,4,5-tetrahydro-[1,1′-biphenyl]-4-yl)methyl)piperazin-1-yl)-5-oxopentanamido)-3,3-dimethylbutanoyl)-4-hydroxy-N—((S)-1-(4-(4-methylthiazol-5-yl)phenyl)ethyl)pyrrolidine-2-carboxamide] | 50 to 150 nM | 150 to 500 nM |
| Cc1ncsc1-c1ccc([C@H](C)NC(=O)[C@@H]2C[C@@H](O)CN2C(=O)[C@@H](NC(=O)CCCCCC(=O)N2CCN(CC3(C)CCC(c4ccc(Cl)cc4)=C(CN4CCN(c5ccc(C(=O)NS(=O)(=O)c6ccc(N[C@H](CCN7CCOCC7)CSc7ccccc7)c(S(=O)(=O)C(F)(F)F)c6)cc5)CC4)C3)CC2)C(C)(C)C)cc1 (stereo partly drawn) [degrader #16, (2S,4R)-1-((2S)-2-(7-(4-((4′-chloro-4-methyl-6-((4-(4-(((4-(((R)-4-morpholino-1-(phenylthio)butan-2-yl)amino)-3-((trifluoromethyl)sulfonyl)phenyl)sulfonyl)carbamoyl)phenyl)piperazin-1-yl)methyl)-2,3,4,5-tetrahydro-[1,1′-biphenyl]-4-yl)methyl)piperazin-1-yl)-7-oxoheptanamido)-3,3-dimethylbutanoyl)-4-hydroxy-N—((S)-1-(4-(4-methylthiazol-5-yl)phenyl)ethyl)pyrrolidine-2-carboxamide] | < 50 nM | < 50 nM |
| Cc1ncsc1-c1ccc([C@H](C)NC(=O)[C@@H]2C[C@@H](O)CN2C(=O)[C@@H](NC(=O)CCCCCCC(=O)N2CCN(CC3(C)CCC(c4ccc(Cl)cc4)=C(CN4CCN(c5ccc(C(=O)NS(=O)(=O)c6ccc(N[C@H](CCN7CCOCC7)CSc7ccccc7)c(S(=O)(=O)C(F)(F)F)c6)cc5)CC4)C3)CC2)C(C)(C)C)cc1 (stereo partly drawn) [degrader #17, (2S,4R)-1-((2S)-2-(8-(4-((4′-chloro-4-methyl-6-((4-(4-(((4-(((R)-4-morpholino-1-(phenylthio)butan-2-yl)amino)-3-((trifluoromethyl)sulfonyl)phenyl)sulfonyl)carbamoyl)phenyl)piperazin-1-yl)methyl)-2,3,4,5-tetrahydro-[1,1′-biphenyl]-4-yl)methyl)piperazin-1-yl)-8-oxooctanamido)-3,3-dimethylbutanoyl)-4-hydroxy-N—((S)-1-(4-(4-methylthiazol-5-yl)phenyl)ethyl)pyrrolidine-2-carboxamide] | < 50 nM | < 50 nM |

Continued, values first:

| IC50 (RS4;11 cells) | IC50 (MOLT-4 cells) | SMILES |
| --- | --- | --- |
| 50 to 150 nM | 50 to 150 nM | Cc1ncsc1-c1ccc([C@H](C)NC(=O)[C@@H]2C[C@@H](O)CN2C(=O)[C@@H](NC(=O)CCCCC(=O)N2CCN(CC3(C)CCC(c4ccc(Cl)cc4)=C(CN4CCN(c5ccc(C(=O)NS(=O)(=O)c6ccc(N[C@H](CCN7CCOCC7)CSc7ccccc7)c(S(=O)(=O)C(F)(F)F)c6)cc5)CC4)C3)CC2)C(C)(C)C)cc1 (stereo partly drawn) [degrader #15, (2S,4R)-1-((2S)-2-(6-(4-((4′-chloro-4-methyl-6-((4-(4-(((4-(((R)-4-morpholino-1-(phenylthio)butan-2-yl)amino)-3-((trifluoromethyl)sulfonyl)phenyl)sulfonyl)carbamoyl)phenyl)piperazin-1-yl)methyl)-2,3,4,5-tetrahydro-[1,1′-biphenyl]-4-yl)methyl)piperazin-1-yl)-6-oxohexanamido)-3,3-dimethylbutanoyl)-4-hydroxy-N—((S)-1-(4-(4-methylthiazol-5-yl)phenyl)ethyl)pyrrolidine-2-carboxamide] |
| < 50 nM | < 50 nM | Cc1ncsc1-c1ccc([C@H](C)NC(=O)[C@@H]2C[C@@H](O)CN2C(=O)[C@@H](NC(=O)CCCCCCCC(=O)N2CCN(CC3(C)CCC(c4ccc(Cl)cc4)=C(CN4CCN(c5ccc(C(=O)NS(=O)(=O)c6ccc(N[C@H](CCN7CCOCC7)CSc7ccccc7)c(S(=O)(=O)C(F)(F)F)c6)cc5)CC4)C3)CC2)C(C)(C)C)cc1 (stereo partly drawn) [degrader #18, (2S,4R)-1-((2S)-2-(9-(4-((4′-chloro-4-methyl-6-((4-(4-(((4-(((R)-4-morpholino-1-(phenylthio)butan-2-yl)amino)-3-((trifluoromethyl)sulfonyl)phenyl)sulfonyl)carbamoyl)phenyl)piperazin-1-yl)methyl)-2,3,4,5-tetrahydro-[1,1′-biphenyl]-4-yl)methyl)piperazin-1-yl)-9-oxononanamido)-3,3-dimethylbutanoyl)-4-hydroxy-N—((S)-1-(4-(4-methylthiazol-5-yl)phenyl)ethyl)pyrrolidine-2-carboxamide] |
| 50 to 150 nM | 50 to 150 nM | Cc1ncsc1-c1ccc([C@H](C)NC(=O)[C@@H]2C[C@@H](O)CN2C(=O)[C@@H](NC(=O)CCCCCCCCC(=O)N2CCN(CC3(C)CCC(c4ccc(Cl)cc4)=C(CN4CCN(c5ccc(C(=O)NS(=O)(=O)c6ccc(N[C@H](CCN7CCOCC7)CSc7ccccc7)c(S(=O)(=O)C(F)(F)F)c6)cc5)CC4)C3)CC2)C(C)(C)C)cc1 (stereo partly drawn) [degrader #19, (2S,4R)-1-((2S)-2-(10-(4-((4′-chloro-4-methyl-6-((4-(4-(((4-(((R)-4-morpholino-1-(phenylthio)butan-2-yl)amino)-3-((trifluoromethyl)sulfonyl)phenyl)sulfonyl)carbamoyl)phenyl)piperazin-1-yl)methyl)-2,3,4,5-tetrahydro-[1,1′-biphenyl]-4-yl)methyl)piperazin-1-yl)-10-oxodecanamido)-3,3-dimethylbutanoyl)-4-hydroxy-N—((S)-1-(4-(4-methylthiazol-5-yl)phenyl)ethyl)pyrrolidine-2-carboxamide] |
| 150 to 500 nM | 150 to 500 nM | Cc1ncsc1-c1ccc([C@H](C)NC(=O)[C@@H]2C[C@@H](O)CN2C(=O)[C@@H](NC(=O)CCCCCCCCCC(=O)N2CCN(CC3(C)CCC(c4ccc(Cl)cc4)=C(CN4CCN(c5ccc(C(=O)NS(=O)(=O)c6ccc(N[C@H](CCN7CCOCC7)CSc7ccccc7)c(S(=O)(=O)C(F)(F)F)c6)cc5)CC4)C3)CC2)C(C)(C)C)cc1 (stereo partly drawn) [degrader #20, (2S,4R)-1-((2S)-2-(11-(4-((4′-chloro-4-methyl-6-((4-(4-(((4-(((R)-4-morpholino-1-(phenylthio)butan-2-yl)amino)-3-((trifluoromethyl)sulfonyl)phenyl)sulfonyl)carbamoyl)phenyl)piperazin-1-yl)methyl)-2,3,4,5-tetrahydro-[1,1′-biphenyl]-4-yl)methyl)piperazin-1-yl)-11-oxoundecanamido)-3,3-dimethylbutanoyl)-4-hydroxy-N—((S)-1-(4-(4-methylthiazol-5-yl)phenyl)ethyl)pyrrolidine-2-carboxamide] |
